Tests used:
Experiment in all cases: KINOMEscan
Format in all cases: binding
Details in all cases: 2000 nM
[1] = target: T1, MERTK (Homo sapiens, UniProt Q12866)
T1 construct: purchased DiscoveRx (KINOMEscan scanMAX panel, service)

[2] = target: T2, PFTK1 (Homo sapiens, UniProt O94921)
T2 construct: DNA label (for qPCR read-out); purchased DiscoveRx (KINOMEscan scanMAX service)

[3] = target: T3, PYK2 (Homo sapiens, UniProt Q14289)
T3 construct: purchased DiscoveRx (KINOMEscan scanMAX panel)

[4] = target: T4, PRKCH (Homo sapiens, UniProt P24723)
T4 construct: purchased DiscoveRx (KINOMEscan scanMAX panel)

[5] = target: T5, CSNK2A1 (Homo sapiens, UniProt P68400)
T5 construct: DNA label; purchased DiscoveRx (KINOMEscan scanMAX panel)

[6] = target: T6, MST4 (Homo sapiens, UniProt Q9P289)
T6 construct: DNA label (for qPCR read-out); purchased KINOMEscan scanMAX panel (DiscoveRx)
T6 sequence (Q9P289 whole entry): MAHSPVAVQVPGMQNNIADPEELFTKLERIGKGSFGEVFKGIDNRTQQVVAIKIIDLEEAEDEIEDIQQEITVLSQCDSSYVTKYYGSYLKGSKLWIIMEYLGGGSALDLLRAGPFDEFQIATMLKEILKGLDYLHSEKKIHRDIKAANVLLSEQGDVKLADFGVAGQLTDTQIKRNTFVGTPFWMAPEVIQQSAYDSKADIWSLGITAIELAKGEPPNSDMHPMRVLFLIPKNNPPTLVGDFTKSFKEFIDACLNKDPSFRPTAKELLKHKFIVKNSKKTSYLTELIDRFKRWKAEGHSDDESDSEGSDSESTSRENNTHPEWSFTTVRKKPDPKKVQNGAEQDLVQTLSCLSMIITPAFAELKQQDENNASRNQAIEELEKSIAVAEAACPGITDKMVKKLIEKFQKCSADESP

[7] = target: T7, CSNK1A1 (Homo sapiens, UniProt P48729)
T7 construct: DNA label (qPCR read-out); purchased DiscoverX (assay service)

[8] = target: T8, VRK2 (Homo sapiens, UniProt Q86Y07)
T8 construct: purchased KINOMEscan (DiscoveRx) panel service

[9] = target: T9, PAK7 (Homo sapiens, UniProt Q9P286)
T9 construct: purchased DiscoverX (KINOMEscan service)

[10] = target: T10, STK16 (Homo sapiens, UniProt O75716)
T10 construct: DNA label (for qPCR read-out); purchased DiscoveRx (KINOMEscan scanMAX panel, contract assay)

[11] = target: T11, IGF1R (Homo sapiens, UniProt P08069)
T11 construct: DNA label (qPCR read-out); purchased KINOMEscan (DiscoveRx) ScanMAX panel

[12] = target: T12, STK39 (Homo sapiens, UniProt Q9UEW8)
T12 construct: DNA label (for qPCR read-out); purchased DiscoveRx (KINOMEscan scanMAX panel, contract assay)

[13] = target: T13, PIK3CG (Homo sapiens, UniProt P48736)
T13 construct: DNA label; purchased DiscoveRx (KINOMEscan scanMAX panel)
T13 sequence (P48736 whole entry): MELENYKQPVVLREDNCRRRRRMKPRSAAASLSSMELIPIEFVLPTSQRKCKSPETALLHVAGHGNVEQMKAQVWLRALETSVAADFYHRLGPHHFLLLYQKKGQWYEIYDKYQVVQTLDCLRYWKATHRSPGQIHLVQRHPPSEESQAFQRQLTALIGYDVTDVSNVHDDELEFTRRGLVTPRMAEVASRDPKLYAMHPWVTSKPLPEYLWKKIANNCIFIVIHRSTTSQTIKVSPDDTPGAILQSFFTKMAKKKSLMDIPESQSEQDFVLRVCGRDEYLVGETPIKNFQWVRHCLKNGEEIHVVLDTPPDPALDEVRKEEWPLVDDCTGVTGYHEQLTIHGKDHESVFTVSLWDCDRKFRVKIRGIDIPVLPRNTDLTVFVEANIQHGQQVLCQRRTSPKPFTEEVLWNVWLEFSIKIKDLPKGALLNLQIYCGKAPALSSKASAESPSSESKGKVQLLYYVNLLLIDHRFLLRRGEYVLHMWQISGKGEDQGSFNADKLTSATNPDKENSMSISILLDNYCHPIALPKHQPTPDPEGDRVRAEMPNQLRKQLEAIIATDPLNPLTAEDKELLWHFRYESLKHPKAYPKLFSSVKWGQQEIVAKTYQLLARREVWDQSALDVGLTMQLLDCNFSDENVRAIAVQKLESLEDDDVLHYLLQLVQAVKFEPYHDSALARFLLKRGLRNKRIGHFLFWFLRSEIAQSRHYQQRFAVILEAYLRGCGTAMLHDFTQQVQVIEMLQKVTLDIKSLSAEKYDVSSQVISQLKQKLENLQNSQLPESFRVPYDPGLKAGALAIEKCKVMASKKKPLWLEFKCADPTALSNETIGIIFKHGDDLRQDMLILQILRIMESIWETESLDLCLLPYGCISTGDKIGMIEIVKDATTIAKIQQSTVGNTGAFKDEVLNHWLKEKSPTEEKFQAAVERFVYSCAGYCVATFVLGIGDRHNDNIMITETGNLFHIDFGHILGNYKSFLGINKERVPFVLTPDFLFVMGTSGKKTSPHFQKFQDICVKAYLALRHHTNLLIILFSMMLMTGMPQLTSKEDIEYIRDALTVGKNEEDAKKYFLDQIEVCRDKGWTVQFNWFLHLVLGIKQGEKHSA

[14] = target: T14, BTK (Homo sapiens, UniProt Q06187)
T14 construct: DNA label (for qPCR read-out); purchased KINOMEscan scanMAX panel (DiscoveRx)

[15] = target: T15, CSNK1A1L (Homo sapiens, UniProt Q8N752)
T15 construct: DNA label; purchased DiscoveRx (KINOMEscan scanMAX panel)

[16] = target: T16, PIK3CA (Homo sapiens, UniProt P42336)
T16 construct: DNA label (for qPCR read-out); purchased DiscoveRx (KINOMEscan scanMAX service)
T16 sequence (P42336 whole entry): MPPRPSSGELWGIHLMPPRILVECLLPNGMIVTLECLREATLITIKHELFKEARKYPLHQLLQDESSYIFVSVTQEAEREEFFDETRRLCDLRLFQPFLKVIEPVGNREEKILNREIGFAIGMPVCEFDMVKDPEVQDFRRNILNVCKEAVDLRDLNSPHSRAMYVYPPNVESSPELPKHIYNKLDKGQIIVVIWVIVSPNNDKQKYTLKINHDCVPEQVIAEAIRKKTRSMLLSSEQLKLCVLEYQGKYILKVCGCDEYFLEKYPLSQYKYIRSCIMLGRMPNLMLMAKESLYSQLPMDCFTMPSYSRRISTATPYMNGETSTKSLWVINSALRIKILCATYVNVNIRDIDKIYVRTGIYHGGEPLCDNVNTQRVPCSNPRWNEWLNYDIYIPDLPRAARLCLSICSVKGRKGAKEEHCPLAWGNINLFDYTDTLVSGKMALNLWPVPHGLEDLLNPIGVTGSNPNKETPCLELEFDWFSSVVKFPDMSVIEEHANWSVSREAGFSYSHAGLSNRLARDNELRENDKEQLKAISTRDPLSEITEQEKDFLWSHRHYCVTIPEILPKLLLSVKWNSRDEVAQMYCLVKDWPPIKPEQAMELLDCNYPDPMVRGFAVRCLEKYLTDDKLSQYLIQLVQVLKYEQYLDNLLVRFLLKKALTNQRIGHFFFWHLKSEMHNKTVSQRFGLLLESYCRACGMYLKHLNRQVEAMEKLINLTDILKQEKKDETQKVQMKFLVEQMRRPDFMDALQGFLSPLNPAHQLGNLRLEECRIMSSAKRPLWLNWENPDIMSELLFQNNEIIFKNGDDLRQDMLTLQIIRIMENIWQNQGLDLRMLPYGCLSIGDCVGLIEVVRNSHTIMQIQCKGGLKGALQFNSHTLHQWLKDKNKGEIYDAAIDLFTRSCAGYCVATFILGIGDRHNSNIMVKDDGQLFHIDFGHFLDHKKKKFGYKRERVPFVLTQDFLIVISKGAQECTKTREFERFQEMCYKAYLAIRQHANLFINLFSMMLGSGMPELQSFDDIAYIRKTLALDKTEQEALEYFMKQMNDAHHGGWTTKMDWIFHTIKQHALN

[17] = target: T17, EGFR(L858R,T790M) (Homo sapiens, UniProt P00533, L858R/T790M)
T17 construct: purchased DiscoveRx (KINOMEscan scanMAX panel)

[18] = target: T18, EPHB3 (Homo sapiens, UniProt P54753)
T18 construct: purchased DiscoveRx (KINOMEscan scanMAX panel)

[19] = target: T19, PLK4 (Homo sapiens, UniProt O00444)
T19 construct: purchased DiscoveRx (KINOMEscan scanMAX panel)

[20] = target: T20, FLT3(D835H) (Homo sapiens, UniProt P36888, D835H)
T20 construct: purchased DiscoveRx (KINOMEscan scanMAX panel)

[21] = target: T21, SNARK (Homo sapiens, UniProt Q9H093)
T21 construct: purchased KINOMEscan (DiscoveRx)

[22] = target: T22, PRKCI (Homo sapiens, UniProt P41743)
T22 construct: purchased DiscoveRx (KINOMEscan scanMAX panel)

[23] = target: ABL1(M351T)-phosphorylated (Homo sapiens, UniProt P00519, M351T)
[24] = target: T23, ICK (Homo sapiens, UniProt Q9UPZ9)
T23 construct: DNA label (qPCR read-out); purchased KINOMEscan (DiscoveRx) ScanMAX panel

[25] = target: T24, SRPK1 (Homo sapiens, UniProt Q96SB4)
T24 construct: purchased KINOMEscan (DiscoveRx)

[26] = target: T25, OSR1 (Homo sapiens, UniProt O95747)
T25 construct: purchased DiscoverX (KINOMEscan service)

[27] = target: MAP3K2 (Homo sapiens, UniProt Q9Y2U5)
[28] = target: T26, LRRK2 (Homo sapiens, UniProt Q5S007)
T26 construct: purchased KINOMEscan (DiscoveRx) panel service

[29] = target: T27, RIOK2 (Homo sapiens, UniProt Q9BVS4)
T27 construct: DNA label (qPCR read-out); purchased DiscoverX (assay service)

[30] = target: T28, NEK4 (Homo sapiens, UniProt P51957)
T28 construct: DNA label (qPCR read-out); purchased KINOMEscan (ScanMAX panel service)

[31] = target: T29, FLT3(D835V) (Homo sapiens, UniProt P36888, D835V)
T29 construct: purchased DiscoveRx (KINOMEscan scanMAX panel)

[32] = target: T30, MLK1 (Homo sapiens, UniProt P80192)
T30 construct: DNA label (qPCR read-out); purchased KINOMEscan scanMAX panel (DiscoveRx)

[33] = target: T31, LKB1 (Homo sapiens, UniProt Q15831)
T31 construct: purchased KINOMEscan (DiscoveRx) panel service

[34] = target: T32, MYO3B (Homo sapiens, UniProt Q8WXR4)
T32 construct: DNA label (for qPCR read-out); purchased KINOMEscan scanMAX panel (DiscoveRx)

[35] = target: T33, WNK2 (Homo sapiens, UniProt Q9Y3S1)
T33 construct: purchased KINOMEscan (DiscoveRx) panel service
T33 sequence (Q9Y3S1 whole entry): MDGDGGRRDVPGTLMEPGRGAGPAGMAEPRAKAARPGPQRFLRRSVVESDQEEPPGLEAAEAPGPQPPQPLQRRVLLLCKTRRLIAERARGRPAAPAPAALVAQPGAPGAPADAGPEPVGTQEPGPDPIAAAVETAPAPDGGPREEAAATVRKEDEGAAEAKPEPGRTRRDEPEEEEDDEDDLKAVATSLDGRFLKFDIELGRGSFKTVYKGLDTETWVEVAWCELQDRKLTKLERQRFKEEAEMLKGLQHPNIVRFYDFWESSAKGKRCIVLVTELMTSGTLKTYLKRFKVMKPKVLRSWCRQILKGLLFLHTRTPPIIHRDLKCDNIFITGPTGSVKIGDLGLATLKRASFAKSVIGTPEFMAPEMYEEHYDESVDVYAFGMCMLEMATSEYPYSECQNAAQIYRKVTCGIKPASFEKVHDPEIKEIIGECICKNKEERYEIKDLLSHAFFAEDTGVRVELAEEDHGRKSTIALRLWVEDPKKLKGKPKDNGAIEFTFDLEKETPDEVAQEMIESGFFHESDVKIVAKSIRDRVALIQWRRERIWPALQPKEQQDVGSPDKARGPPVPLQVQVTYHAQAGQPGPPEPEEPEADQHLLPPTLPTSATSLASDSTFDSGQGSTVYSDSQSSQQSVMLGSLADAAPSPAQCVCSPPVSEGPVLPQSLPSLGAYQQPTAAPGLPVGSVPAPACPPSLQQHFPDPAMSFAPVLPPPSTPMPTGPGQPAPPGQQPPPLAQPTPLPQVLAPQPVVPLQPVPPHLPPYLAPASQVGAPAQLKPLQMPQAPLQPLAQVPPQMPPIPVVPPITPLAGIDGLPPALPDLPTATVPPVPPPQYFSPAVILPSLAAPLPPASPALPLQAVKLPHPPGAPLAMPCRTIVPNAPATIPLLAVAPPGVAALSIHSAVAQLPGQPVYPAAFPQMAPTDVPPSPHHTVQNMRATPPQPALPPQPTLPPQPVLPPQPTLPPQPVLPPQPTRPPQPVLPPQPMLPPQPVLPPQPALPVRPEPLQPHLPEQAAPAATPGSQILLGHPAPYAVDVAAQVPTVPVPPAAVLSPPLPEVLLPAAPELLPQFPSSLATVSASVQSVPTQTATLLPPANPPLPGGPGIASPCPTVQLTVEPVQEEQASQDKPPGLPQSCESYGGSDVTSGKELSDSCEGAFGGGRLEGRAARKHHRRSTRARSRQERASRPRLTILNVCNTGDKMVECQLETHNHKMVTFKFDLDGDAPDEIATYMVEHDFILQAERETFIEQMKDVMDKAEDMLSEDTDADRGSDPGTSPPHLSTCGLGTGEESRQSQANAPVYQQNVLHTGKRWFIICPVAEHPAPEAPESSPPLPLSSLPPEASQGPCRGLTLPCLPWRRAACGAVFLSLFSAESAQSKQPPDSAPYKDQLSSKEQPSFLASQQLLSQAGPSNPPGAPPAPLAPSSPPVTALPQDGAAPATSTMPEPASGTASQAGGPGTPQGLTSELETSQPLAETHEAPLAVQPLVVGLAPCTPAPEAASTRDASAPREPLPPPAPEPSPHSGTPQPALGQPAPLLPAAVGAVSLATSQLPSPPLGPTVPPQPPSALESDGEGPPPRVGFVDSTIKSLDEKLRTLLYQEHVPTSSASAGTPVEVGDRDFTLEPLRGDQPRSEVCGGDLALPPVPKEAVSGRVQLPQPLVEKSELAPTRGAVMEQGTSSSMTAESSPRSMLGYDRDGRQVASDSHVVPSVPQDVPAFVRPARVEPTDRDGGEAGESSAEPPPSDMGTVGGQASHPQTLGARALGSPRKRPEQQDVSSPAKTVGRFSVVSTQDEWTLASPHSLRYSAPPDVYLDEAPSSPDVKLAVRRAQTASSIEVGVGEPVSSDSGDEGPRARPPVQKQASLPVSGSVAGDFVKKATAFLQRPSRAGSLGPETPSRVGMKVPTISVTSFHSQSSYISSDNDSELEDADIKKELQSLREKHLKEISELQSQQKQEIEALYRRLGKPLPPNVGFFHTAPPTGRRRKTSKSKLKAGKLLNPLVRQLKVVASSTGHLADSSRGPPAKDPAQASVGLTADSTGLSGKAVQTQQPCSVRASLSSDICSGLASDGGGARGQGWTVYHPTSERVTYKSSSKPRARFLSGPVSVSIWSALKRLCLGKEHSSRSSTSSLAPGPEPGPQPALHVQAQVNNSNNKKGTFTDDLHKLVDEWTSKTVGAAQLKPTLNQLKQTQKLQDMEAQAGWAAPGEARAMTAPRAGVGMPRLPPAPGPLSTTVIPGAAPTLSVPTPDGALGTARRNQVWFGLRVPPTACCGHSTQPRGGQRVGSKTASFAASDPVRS

[36] = target: T34, MYO3A (Homo sapiens, UniProt Q8NEV4)
T34 construct: DNA label (for qPCR read-out); purchased KINOMEscan scanMAX panel (DiscoveRx)

[37] = target: T35, FGFR2 (Homo sapiens, UniProt P21802)
T35 construct: purchased DiscoveRx (KINOMEscan scanMAX panel)

Row | SMILES | % Ctrl [1] | % Ctrl [2] | % Ctrl [3] | % Ctrl [4] | % Ctrl [5] | % Ctrl [6] | % Ctrl [7] | % Ctrl [8] | % Ctrl [9] | % Ctrl [10] | % Ctrl [11] | % Ctrl [12] | % Ctrl [13] | % Ctrl [14] | % Ctrl [15] | % Ctrl [16] | % Ctrl [17] | % Ctrl [18] | % Ctrl [19] | % Ctrl [20] | further results
1 | [2H]C([2H])([2H])N(C(=O)c1ccc(N2CCCN(c3ccnc4sc(C(N)=O)c(N)c34)CC2)cc1)C([2H])([2H])[2H] [15u_D6, 3-amino-4-(4-(4-(bis(methyl-d3)carbamoyl)phenyl)-1,4-diazepan-1-yl)thieno[2,3-b]pyridine-2-carboxamide] | 100 % Ctrl | 100 % Ctrl | 84 % Ctrl | 96 % Ctrl | 59 % Ctrl | 89 % Ctrl | 12 % Ctrl | 56 % Ctrl | 80 % Ctrl | 87 % Ctrl | 91 % Ctrl | 94 % Ctrl | 76 % Ctrl | 77 % Ctrl | 37 % Ctrl | 79 % Ctrl | 87 % Ctrl | 94 % Ctrl | 92 % Ctrl | 76 % Ctrl | % Ctrl [21]: 78 % Ctrl; % Ctrl [22]: 100 % Ctrl; % Ctrl [23]: 77 % Ctrl; % Ctrl [24]: 66 % Ctrl; % Ctrl [25]: 97 % Ctrl; % Ctrl [26]: 88 % Ctrl; % Ctrl [27]: 86 % Ctrl; % Ctrl [28]: 70 % Ctrl; % Ctrl [29]: 3.9 % Ctrl; % Ctrl [30]: 95 % Ctrl; % Ctrl [31]: 14 % Ctrl; % Ctrl [32]: 92 % Ctrl; % Ctrl [33]: 87 % Ctrl; % Ctrl [34]: 100 % Ctrl; % Ctrl [35]: 94 % Ctrl; % Ctrl [36]: 100 % Ctrl; % Ctrl [37]: 98 % Ctrl
2 | CN(C)C(=O)c1ccc(N2CCCN(c3ccnc4sc(C(N)=O)c(N)c34)CC2)cc1 [15u, 3-amino-4-(4-(4-(dimethylcarbamoyl)phenyl)-1,4-diazepan-1-yl)thieno[2,3-b]pyridine-2-carboxamide] | 89 % Ctrl | 96 % Ctrl | 97 % Ctrl | 80 % Ctrl | 100 % Ctrl | 95 % Ctrl | 33 % Ctrl | 84 % Ctrl | 100 % Ctrl | 80 % Ctrl | 92 % Ctrl | 93 % Ctrl | 79 % Ctrl | 81 % Ctrl | 67 % Ctrl | 100 % Ctrl | 100 % Ctrl | 96 % Ctrl | 95 % Ctrl | 63 % Ctrl | % Ctrl [21]: 100 % Ctrl; % Ctrl [22]: 100 % Ctrl; % Ctrl [23]: 100 % Ctrl; % Ctrl [24]: 84 % Ctrl; % Ctrl [25]: 100 % Ctrl; % Ctrl [26]: 100 % Ctrl; % Ctrl [27]: 98 % Ctrl; % Ctrl [28]: 94 % Ctrl; % Ctrl [29]: 35 % Ctrl; % Ctrl [30]: 100 % Ctrl; % Ctrl [31]: 33 % Ctrl; % Ctrl [32]: 95 % Ctrl; % Ctrl [33]: 100 % Ctrl; % Ctrl [34]: 87 % Ctrl; % Ctrl [35]: 96 % Ctrl; % Ctrl [36]: 100 % Ctrl; % Ctrl [37]: 99 % Ctrl
